The text below walks through data of publication PMC10671849, “Synthesis and Evaluation of Marine-Inspired Compounds Result in Hybrids with Antitrypanosomal and Antileishmanial Activities” (Marine Drugs, 2023).

What is called MIC is the lowest concentration that inhibits growth of the organism.

Converted amounts (≈) assume the structure as drawn. Read-outs that look alike come from different tables or passages of the source. Where only a bound is given, the exact number is not on record here.

The test system of experiment [1] is Candida albicans ATCC 10231. In words: Antifungal broth microdilution (CLSI M27-A3), MIC/MLC. The conditions noted are these: for MIC: Candida albicans, ATCC10231, broth microdilution, 16 to 512 µg/mL, 48 h at 36 °C. The class given is cell-based. The protocol: (§1) All tested compounds (9a–9d, 10a–10c, 13, 14, and eugenol (1)) were prepared in DMSO (Sigma-Aldrich, St. Louis, MO, USA) at a concentration of 10 mg/mL. The reference drugs used (voriconazole (Sigma-Aldrich, St. Louis, MO, USA) for fungi and quality control; gentamicin (Sigma-Aldrich, St. Louis, MO, USA) for bacterial and quality control) were prepared at 6.4 mg/mL. The stock solutions of the compounds were stored at –20 °C until immediately before the assays and then were diluted in fresh culture medium, RPMI-1640 medium (Biochrom AG, Berlin, Germany) buffered with 3-(N-morpholino)propanesulfonic acid (MOPS—Sigma-Aldrich, St. Louis, MO, USA) for fungi and cation-adjusted Mueller–Hinton broth (MHBII—Becton Dickinson, France) for bacteria, henceforth referred to as RPMI and MHB, respectively.
(§2) Fungal strains, including reference strains and clinical isolates, were used for the study of the antifungal activity: a yeast reference strain from American Type Culture Collection (ATCC), Candida albicans ATCC 10231; filamentous fungi reference strain Aspergillus fumigatus ATCC 240305; and a clinical isolate of dermatophytes Trichophyton rubrum FF5. Candida krusei ATCC 6258 was used as a quality control. All fungal strains were stored in Sabouraud dextrose broth (SDB—Bio-Mèrieux, Marcy L’Etoile, France) with glycerol (20%) at −80 °C and were subcultured in Sabouraud dextrose agar (SDA—Bio-Mèrieux, Marcy L’Etoile, France) for 24–72 h (yeasts and A. fumigatus) or 5–7 days (T. rubrum) before each assay to obtain optimal growth and purity conditions. Two bacteria strains were used, one Gram positive and one Gram negative: Staphylococcus aureus ATCC 25923 and Escherichia coli ATCC 25922, respectively. The bacterial strains were stored in trypticase soy broth (TSB—Biolife, Milan, Italy) with glycerol (10%) at −80 °C and subcultured in Mueller–Hinton agar (MHA—Bio-Mèrieux, Marcy L’Etoile, France) for 24 h before each assay.
For the purpose of quantitatively measuring the antifungal activity in vitro, a broth microdilution method was used to determine the MICs using the CLSI reference protocols M27-A3 [27] for yeasts and M38-A2 [28] for filamentous fungi. In short, two-fold serial dilutions of each stock solution were prepared using RPMI medium (pH 7) to obtain a range of test concentrations from 16 to 512 μg/mL. The yeasts or spore suspensions were prepared from 24 to 72-h cultures (yeasts and Aspergillus) or from 5–7 days of cultures (dermatophyte) in saline solution (with a drop of Tween 20 for the filamentous fungi). The transmittance of the cell density of yeasts was adjusted to 0.5 McFarland standard, and for filamentous fungi, the spores were counted using a Neubauer camera. Dilutions were performed using RPMI to obtain cell final concentrations in the plate of 0.5–2.5 × 10^3 colony forming units (CFU)/mL for yeasts, 0.4–5 × 10^4 CFU/mL for Aspergillus, and 1–3 × 10^3 CFU/mL for dermatophytes. Plates with the prepared serial dilutions of the tested compounds were inoculated with the same volume of the fungal suspension, and sterility (wells with only culture medium), growth (wells with cell suspensions in culture medium), and DMSO controls (wells with cell suspensions in culture medium containing 1% DMSO) were included in each assay. […] For the tested compounds, MIC values were considered the minimum concentration that inhibited the yeast growth by 100% compared to the growth control. The reference drug, voriconazole, was tested against C. krusei ATCC 6258 as a quality control, and the results were within the limits of CLSI reference documents.
After MIC readings, 10 μL of suspension were collected from wells corresponding to the MIC and the highest concentration following the MIC and were deposited in SDA plates. The plates were incubated following the conditions previously mentioned for the MIC evaluation, and the MLC was determined as the lowest concentration at which no fungal growth is observed.

Experiment [2] concerns Escherichia coli ATCC 25922. In words: Antibacterial broth microdilution (CLSI M100-S25), MIC/MLC. The class given is cell-based. The protocol: as §1, §2
For bacteria, MICs were determined by the broth microdilution method, following the recommendations of the reference method M100-S25 [29].
Similarly, as previous described, two-fold serial dilutions of each stock solution were prepared using MHB to obtain a range of test concentrations from 16 to 512 μg/mL. Bacterial cell suspensions were prepared from 24-h cultures in saline solution, and the transmittance of cell density was adjusted to 0.5 McFarland standard. Dilutions were performed using MHB to obtain cell final concentrations in the plate of 0.5–2.5 × 10^4 CFU/mL.
Plates with the prepared serial dilutions of the tested compounds were inoculated with the same volume of the bacterial suspension, and sterility, growth and DMSO controls were included in each assay. Immediately thereafter, the plates were incubated in a humid atmosphere (aerobic environment) for 18–24 h at 36 °C.
MIC values were considered the minimum concentrations that inhibited the bacterial growth by 100% compared to the growth control. The reference drug, gentamicin, was tested as a quality control, and the results were according to the norms.
A volume of 10 μL of suspension was collected from wells corresponding to the MIC and the highest following concentration and was deposited in MHA plates. The plates were incubated for 24 h at 36 °C, and the MLC was determined as the lowest concentration at which no bacterial growth was observed.

Where [3] appears, read: ATCC25922, broth microdilution, 16 to 512 µg/mL, 18–24 h at 36 °C, read-out: MIC E. coli.

Regarding `C=CCc1cc(Cn2cc(C(=O)Nc3ccccc3C(N)=O)nn2)c(O)c(OC)c1` [9a, 1-(5-allyl-2-hydroxy-3-methoxybenzyl)-N-(2-carbamoylphenyl)-1H-1,2,3-triazole-4-carboxamide], the MIC in experiment [1] and in experiment [2] (setting [3]) was above 512 µg/mL in each case.
`C=CCc1cc(Cn2cc(C(=O)Nc3ccc(F)cc3C(N)=O)nn2)c(O)c(OC)c1` [9c, 1-(5-allyl-2-hydroxy-3-methoxybenzyl)-N-(2-carbamoyl-4-fluorophenyl)-1H-1,2,3-triazole-4-carboxamide]: the MIC is above 512 µg/mL in experiment [1]; 256 to 512 µg/mL (≈ 602 to 1200 µM) in experiment [2] (setting [3]); above 512 µg/mL in experiment [2] (ATCC25922, second value printed after the MIC of the preceding sentence, read-out: MIC E. coli ("the only MIC evaluated")).
For `C=CCc1cc(Cn2cc(C(=O)Nc3ccc(Cl)cc3C(N)=O)nn2)c(O)c(OC)c1` [9d, 1-(5-allyl-2-hydroxy-3-methoxybenzyl)-N-(2-carbamoyl-4-chlorophenyl)-1H-1,2,3-triazole-4-carboxamide], the MIC in experiment [1] and in experiment [2] (setting [3]) was above 512 µg/mL each time.
For `C=CCc1cc(Cn2cc(-c3nc4ccc(OC)cc4c(=O)[nH]3)nn2)c(O)c(OC)c1` [10b, 2-(1-(5-allyl-2-hydroxy-3-methoxybenzyl)-1H-1,2,3-triazol-4-yl)-6-methoxyquinazolin-4(3H)-one], the MIC in experiment [1] and in experiment [2] (setting [3]) was above 512 µg/mL each time.
Consider `C=CCc1cc(Cn2cc(-c3nc4ccccc4c(=O)[nH]3)nn2)c(O)c(OC)c1` [10a, 2-(1-(5-allyl-2-hydroxy-3-methoxybenzyl)-1H-1,2,3-triazol-4-yl)quinazolin-4(3H)-one], for which the MIC in experiment [1] and in experiment [2] (setting [3]) was above 512 µg/mL in each case.
In the case of `C=CCc1cc(Cn2cc(-c3nc4ccc(F)cc4c(=O)[nH]3)nn2)c(O)c(OC)c1` [10c, 2-(1-(5-allyl-2-hydroxy-3-methoxybenzyl)-1H-1,2,3-triazol-4-yl)-6-fluoroquinazolin-4(3H)-one], the MIC in experiment [1] and in experiment [2] (setting [3]) was above 512 µg/mL throughout.
As to `C=CCc1ccc(OCc2cn(CC(=O)Nc3ccccc3C(=O)O)nn2)c(OC)c1` [compound 13, 2-(2-(4-((4-allyl-2-methoxyphenoxy)methyl)-1H-1,2,3-triazol-1-yl)acetamido) benzoic acid], the minimal inhibitory concentration (MIC) in experiment [1] and in experiment [2] (setting [3]) was above 512 µg/mL throughout.
Turning to `C=CCc1cc(Cn2cc(-c3nc4ccccc4c(=O)o3)nn2)c(O)c(OC)c1` [compound 14, 2-(1-(5-allyl-2-hydroxy-3-methoxybenzyl)-1H-1,2,3-triazol-4-yl)-4H-benzo[d][1,3]oxazin-4-one], the MIC in experiment [1] and in experiment [2] (setting [3]) was above 512 µg/mL each time.
With `C=CCc1ccc(O)c(OC)c1` [Eugenol, eugenol, reference compound], the MIC in experiment [1] is 512 µg/mL (≈ 3120 µM); in experiment [2] (setting [3]) it was above 512 µg/mL. Also, the “MLC C. albicans” value in experiment [1] (minimum lethal concentration, subculture on SDA after MIC reading) is given as above 512 µg/mL.
As for `C=CCc1cc(Cn2cc(C(=O)Nc3ccc(OC)cc3C(N)=O)nn2)c(O)c(OC)c1` [9b, 1-(5-allyl-2-hydroxy-3-methoxybenzyl)-N-(2-carbamoyl-4-methoxyphenyl)-1H-1,2,3-triazole-4-carboxamide], the MIC in experiment [1] and in experiment [2] (setting [3]) was above 512 µg/mL throughout.
